The values that follow come from patent publication US12653189B2, “Herbicidal compositions comprising glyphosate” (BASF SE, priority 2023, dated 2026).

Structures are written as SMILES.

Common to all, as to experiment: Post-emergence application in field trials
Holding throughout (assay type): in vivo

For experiment [1], the system named is AMARE (Amaranthus retroflexus). How it is done:
(§1) In the examples below, using the method of S. R. Colby (1967) “Calculating synergistic and antagonistic responses of herbicide combinations”, Weeds 15, p. 22ff., the value E, which is expected if the activity of the individual active compounds is only additive, was calculated:
(§2) [formula] • where • X=percent activity using active herbicide A at an application rate a; • Y=percent activity using active glyphosate at an application rate b; • E=expected activity (in %) by A+B at application rates a+b.
(§3) For 3- and 4-component mixtures (examples 3-5) the synergistic response was calculated as described in: Ferry, Nancy; Stanley, Bruce H.; and Armel, Gregory (2005). “DESIGN AND ANALYSIS OF BIOLOGICAL ASSAYS OF MIXTURES,” Conference on Applied Statistics in Agriculture. https://doi.org/10.4148/2475-7772.1133. According to this publication, the Colby calculation can be generalized to a third mixing partner, Z, employing the following formula: […]
(§4) If the value found experimentally is higher than the value E calculated according to Colby, a synergistic effect is present.
(§5) On field test sites, natural weed infestation or seeded weeds were treated post-emergence of the weeds.
(§6) In the field trials, the weedy plants were treated as indicated below.
(§7) Herbicide A-1 (342 g/I), glyphosate (480 g/I or 575 g/l) and optional herbicide C were, together with addition of 0.5% v/v MSO (methylated seed oil) as adjuvant (unless indicated otherwise), formulated in water as distribution medium as indicated and sprayed with commercial flat fan nozzles.
(§8) In the following experiments, the herbicidal activity for the individual herbicidal compositions (solo and mixture applications) was assessed at the indicated days after treatment (DAT). The assessments for the damage on undesired weeds caused by the composition was carried out using a scale from 0 to 100%, compared to the untreated control plants. Here, 0 means no damage and 100 means complete destruction of the plants.

Experiment [2] deals with ECHCG (Echinocloa crus-galli). The note with it: growth stage 23-30, height 15-20 cm, water volume 200 l/ha, 0.25% v/v MSO. Here is the method:
as §1, §2, §3, §4, §5, §6, §7, §8

For experiment [3], the system named is HORVW (Hordeum vulgare (barley)). The conditions noted are these: HORVW volunteer crop, growth stage 23-29, height 20-25 cm; A-1 + C-4 12.5 + 12.5, B-6 840, C-1 12.5 g ai/ha; 7 DAT; water volume 200 l/ha; 0.25% v/v MSO. How it is done: as §1, §2, §3, §4, §5, §6, §7, §8
Experiment [4] has as its system AMAPA (Amaranthus palmeri). The conditions noted are these: Glyphosate (EPSPS) resistant AMAPA, height 5-23 cm; A-1 50 g ai/ha, B-6 840 g ai/ha; 21 DAT; water volume 140 l/ha; 1% v/v MSO + 2.5% v/v AMS. Here is the method: as §1, §2, §3, §4, §5, §6, §7, §8
Experiment [5] has as its system BRADC (Brachiaria decumbens). The note with it: A-1 50 g ai/ha, B-6 1080 g ai/ha, 21 DAT, water volume 100 l/ha, 0.5% v/v MSO. How it is done:
as §1, §2, §3, §4, §5, §6, §7, §8

Experiment [6] concerns COMBE (Commelina benghalensis). The conditions noted are these: B-6 1080 g ai/ha, 21 DAT, water volume 200 l/ha, 0.5% v/v MSO. Here is the method:
as §1, §2, §3, §4, §5, §6, §7, §8

For experiment [7], the system named is DIGIN = TRCIN (Digitaria insularis). The note with it: height 20-30 cm, A-1 50 g ai/ha, B-6 1080 g ai/ha, 7 DAT, water volume 200 l/ha, 0.5% v/v MSO. How it is done: as §1, §2, §3, §4, §5, §6, §7, §8
The subject of a further experiment is ELEIN (Eleusine indica). The note with it: growth stage 23-25, height 3-5 cm, A-1 25 g ai/ha, B-6 1080 g ai/ha, 20 DAT, water volume 200 l/ha, 0.5% v/v MSO. Here is the method:
as §1, §2, §3, §4, §5, §6, §7, §8

Experiment [8] relates to GLXMA (Glycine max (soybean)). The note with it: glyphosate-tolerant volunteer soybean M 6210 IPRO (GLXMA), growth stage 18; A-1 25 g ai/ha, B-6 1080 g ai/ha; 21 DAT; water volume 200 l/ha; 0.5% v/v MSO. Here is the method:
as §1, §2, §3, §4, §5, §6, §7, §8

The subject of the next experiment is IPOTR (Ipomoea triloba). The note with it: B-6 1080 g ai/ha, 21 DAT, water volume 200 l/ha, 0.5% v/v MSO. Here is the method:
as §1, §2, §3, §4, §5, §6, §7, §8

In a further experiment the test system is PANMA (Panicum maximum). The note with it: A-1 25 g ai/ha, B-6 1080 g ai/ha, 21 DAT, water volume 100 l/ha, 0.5% v/v MSO. Here is the method:
as §1, §2, §3, §4, §5, §6, §7, §8

Experiment [9] has as its system SPCHI (Spermacoce hispida). The note with it: height 25 cm, A-1 25 g ai/ha, B-6 1080 g ai/ha, 21 DAT, water volume 100 l/ha, 0.5% v/v MSO. How it is done: as §1, §2, §3, §4, §5, §6, §7, §8
Another experiment deals with ZEAMX (Zea mays (maize)). The note with it: glyphosate-tolerant volunteer corn RB 9006 PRO 2 (ZEAMX), growth stage 18; A-1 25 g ai/ha, B-6 1080 g ai/ha; 21 DAT; water volume 200 l/ha; 0.5% v/v MSO. Here is the method: as §1, §2, §3, §4, §5, §6, §7, §8
Another experiment relates to AMATU. The note with it: growth stage 19, height 10-20 cm, A-1 50 g ai/ha, B-6 840 g ai/ha, 23 DAT, water volume 140 l/ha, 1% v/v MSO + 2.5% v/v AMS. How it is done: as §5, §6, §7, §8
Setting [10] is: growth stage 32, height 12 cm, A-1 + B-6 12.5 + 840, C-1 12.5, C-4 12.5 g ai/ha, 42 DAT, water volume 200 l/ha, 0.25% v/v MSO.
[11] abbreviates: ECHCG, A-1 12.5, B-6 840, C-1 12.5 g ai/ha, 7 DAT.
[12] abbreviates: ECHCG, A-1 12.5, B-6 840, C-1 12.5 g ai/ha, 28 DAT.
The mark [13] stands for this setting: Table 5.2: ECHCG, A-1 + C-4 12.5 + 12.5, B-6 840, C-1 12.5 g ai/ha, 7 DAT.
The mark [14] stands for this setting: growth stage 19, height 10-20 cm, A-1 50 g ai/ha, B-6 840 g ai/ha, 23 DAT, water volume 140 l/ha, 1% v/v MSO + 2.5% v/v AMS.
Where [15] appears, read: ECHCG, A-1 12.5, B-6 840, C-4 12.5 g ai/ha, 7 DAT.
Setting [16] is: Table 5.1: ECHCG, A-1 + C-1 12.5 + 12.5, B-6 840, C-4 12.5 g ai/ha, 7 DAT.

With `CC(C)N(C)S(=O)(=O)NC(=O)c1cc(-n2c(=O)cc(C(F)(F)F)n(C)c2=O)c(F)cc1Cl` [C-1, saflufenacil], the “% Herbicidal activity” value in [1] (setting [10]) was 55%; in [2] (setting [11]), 20%; in experiment [2] (setting [12]), 20%; in [2] (setting [13]), 20%; in experiment [3], 0%.
In the case of `CCOC(=O)COc1ccccc1Oc1nc(-n2c(=O)cc(C(F)(F)F)n(C)c2=O)c(F)cc1Cl` [A-1, ethyl 2-[2-[[3-chloro-5-fluoro-6-[3-methyl-2,6-dioxo-4-(trifluoromethyl)pyrimidin-1-yl]-2-pyridyl]oxy]phenoxy]acetate], the “% Herbicidal activity” value was 74% in [4]; 73% in experiment [1] (setting [14]); 71% in [5]; 60% in experiment [6] (A-1 25 g ai/ha); 82% in experiment [6] (A-1 50 g ai/ha); 58% in experiment [7]. Also, the “% Herbicidal activity” value was 30% in [2] (setting [11]); 20% in experiment [2] (setting [12]); 30% in experiment [2] (setting [15]); 82% with ELEIN (Eleusine indica); 93% in experiment [8]; 82% with IPOTR (Ipomoea triloba) (A-1 25 g ai/ha). Besides, the “% Herbicidal activity” value is reported as 88% in the experiment with IPOTR (Ipomoea triloba) (A-1 50 g ai/ha); 73% with PANMA (Panicum maximum); 30% in [9]; 53% in the experiment on ZEAMX (Zea mays (maize)); 73% in the experiment with AMATU.
Take `C#CCN1C(=O)C(F)(F)Oc2cc(F)c(-n3c(=O)n(C)c(=S)n(C)c3=O)cc21` [C-4, trifludimoxazin]: the entries for the “% Herbicidal activity” value in [1] (setting [10]), in [2] (setting [15]) and in experiment [2] (setting [16]) were 45%, 20% and 20%, respectively.
With `O=C(O)CNCP(=O)(O)O` [B-6, glyphosate-potassium], the “% Herbicidal activity” value is on record as 10% in experiment [4]; 50% in experiment [1] (setting [14]); 75% in experiment [5]; 30% in experiment [6] (A-1 25 g ai/ha); 30% in [6] (A-1 50 g ai/ha); 2% in experiment [7]. Moreover, the “% Herbicidal activity” value in experiment [2] (setting [11]) is listed as 70%; in experiment [2] (setting [12]), 94%; in [2] (setting [15]), 70%; in [2] (setting [16]), 70%; in experiment [2] (setting [13]) it was 70%; in the experiment with ELEIN (Eleusine indica) it was 68%. For the same molecule, the “% Herbicidal activity” value in experiment [8] is 0%; in [3], 80%; in the experiment with IPOTR (Ipomoea triloba) (A-1 25 g ai/ha) it was 30%; in the experiment with IPOTR (Ipomoea triloba) (A-1 50 g ai/ha) it was 30%; in the experiment on PANMA (Panicum maximum), 75%; in experiment [9], 20%. The “% Herbicidal activity” value in the experiment on ZEAMX (Zea mays (maize)) stood at 0%; with AMATU, 50%.
